Test results from PMC3170513 (Neuropeptides, 2011).
Starred links: 1 amine or outer side, 2 acyl side, 3 side chain; linkers in the order of their positions; H or OH if unused. Positions of bridges follow the written chain, without caps; N, C: chain ends. Non-standard residues stand in square brackets, D forms with d. Residues, ends and D or L forms follow the SMILES beside them. Chains are numbered I, II in the order given. Actinocin(9to1) = Cc1c2oc3c(C)ccc(C(=O)[*:1])c3nc-2c(C(=O)[*:2])c(N)c1=O; NMeV = CN[C@H](C(=O)O)C(C)C; Sar = CNCC(=O)O

Assays:
[1] = system: 125I-CART 61-102 specific binding in PC12 cells; experiment: Effect of differentiation; type: cell-based, Rat; settings: 5 nM radioligand; for effect of inhibitors on specific binding, undifferentiated cells: undifferentiated PC12 cells, 6 hours, CHX 10 ug/ml, ActiD 2 mM, CytoD 4 mM, n=3 – 5
[2] = system: ERK signaling in AtT20 cells; settings: ref Lakatos et al., 2005; cited from earlier work
[3] = system: phospho-ERK in PC12 cells; experiment: ERK activation; type: cell-based, Rat; settings: for inhibition of CART-induced phospho-ERK (general, in words): pertussis toxin
[4] = system: voltage dependant Ca++ signaling in hippocampal cells; settings: hippocampal cells in culture; ref Yermolaieva et al., 2001; cited from earlier work
[5] = system: CART binding in nucleus accumbens neurons; settings: primary cell cultures; ref Jones and Kuhar, 2008; cited from earlier work
[6] = system: CART binding in PC12 cells; settings: ref Maixnerova et al., 2007, Maletinska et al.; cited from earlier work

In the case of C[C@@H]1C[C@@H]([C@H](O)CC2CC(=O)NC(=O)C2)C(=O)[C@@H](C)C1 [CHX, Cycloheximide], the “effect of inhibitors on specific binding, undifferentiated cells” value [1] is reported as “none of the inhibitors had any effects”.

For Pertussin Toxin [PTX], the “ERK signaling in AtT20 cells” value [2] is listed as “reduced”, the “inhibition of CART-induced phospho-ERK (general, in words)” value ([3]; PC12 cells) is listed as “reduced” and the “inhibition of CART-induced phospho-ERK (general, in words)” value ([3]; PC12 cells, listed as pertussis toxin) is listed as “blocked”. For the same molecule, the “inhibition of CART-induced phospho-ERK, N-differentiated cells” value ([3]; PTX 200ng/m, at least 16 hrs, N 3 days, CART 61-102 0.3 µM) was “prevented”, the “inhibition of CART-induced phospho-ERK, N + P-differentiated cells” value ([3]; PTX 200ng/m, at least 16 hrs, N + P 3 days, CART 61-102 0.3 µM) was “inhibited” and the “inhibition of CART-induced phospho-ERK, undifferentiated cells” value ([3]; PTX 200ng/m, at least 16 hrs, undifferentiated PC12 cells, CART 0.3 µM) was “inhibited”. For the same molecule, the “effect of PTX alone on phospho-ERK” value ([3]; PTX alone vs control, PC12 cells) was “no inhibitory effect compared to control” and the “effect on voltage dependant Ca++ signaling” value [4] was “blocked”.

In the case of C=C1[C@@H](C)[C@H]2[C@H](Cc3ccccc3)NC(=O)[C@]23[C@H](OC(C)=O)/C=C/[C@@](C)(O)C(=O)[C@@H](C)C/C=C/[C@H]3[C@@H]1O [CytoD, Cytochalasin D], the “effect of inhibitors on specific binding, undifferentiated cells” value [1] is reported as “none of the inhibitors had any effects”.

In the case of Nc1nc2c(ncn2[C@@H]2O[C@H](COP(=O)(O)OP(=O)(O)OP(=O)(O)O)[C@@H](O)[C@H]2O)c(=O)[nH]1 [GTP], the “specific binding in nucleus accumbens neurons and effect of nucleotides on it” value [5] is given as “reduced the binding of CART peptide”.

In the case of Cc1c2oc3c(C)ccc(C(=O)N[C@@H]4C(=O)N[C@H](C(C)C)C(=O)N5CCC[C@H]5C(=O)N(C)CC(=O)N(C)[C@@H](C(C)C)C(=O)O[C@@H]4C)c3nc-2c(C(=O)N[C@@H]2C(=O)N[C@H](C(C)C)C(=O)N3CCC[C@H]3C(=O)N(C)CC(=O)N(C)[C@@H](C(C)C)C(=O)O[C@@H]2C)c(N)c1=O [ActiD, Actinomycin D] (I: T[dV]P[Sar][NMeV] / II: T[dV]P[Sar][NMeV]; ester I:1-I:C, II:1-II:C; linker I:N-II:N via Actinocin(9to1)), the “effect of inhibitors on specific binding, undifferentiated cells” value [1] is reported as “none of the inhibitors had any effects”.

B1: Nerve Growth Factor 2.5S (protein, UniProt P01139 122-241, looked up)
Beta-nerve growth factor: SSTHPVFHMGEFSVCDSVSVWVGDKTTATDIKGKEVTVLAEVNINNSVFRQYFFETKCRASNPVESGCRGIDSKHWNSYCTTTHTFVKALTTDEKQAAWRFIRIDTACVCVLSRKATRRG
modifications: Beta-nerve growth factor
In the case of B1, the “change of specific 125I-CART 61-102 binding over 1-3 days of differentiation” value ([1]; NGF 50ng/mL and/or PACAP 100nM, 1, 2, 3 days, N = 3 – 5) is given as “increased”, the “phospho-ERK stimulation, positive controls” value ([3]; acute treatment, undifferentiated and differentiated PC12 cells, data not shown) is given as “increased ERK phosphorylation” and the “specific binding in PC12 cells” value [6] is given as “increased after differentiation”.
